These are literature values, as cited in patent publication US20050064563A1, “Nucleic acids for aminocoumarin biosynthesis” (priority 2001, published 2005).

The series addresses intact gyrase (bacterial DNA gyrase) (Escherichia coli, UniProt P0AES6). Particulars: intact gyrase heterotetramer; Peng et al. (1993) J. Biol. Chem. 268: 24481-24490; read-out: concentration achieving 50% inhibition of gyrase.

`CO[C@H]1[C@H](OC(=O)c2ccc(C)[nH]2)[C@H](O)[C@@H](Oc2ccc3c(O)c(NC(=O)c4c[nH]c(C(=O)Nc5c(O)c6ccc(O[C@H]7OC(C)(C)[C@@H](OC)[C@H](OC(=O)c8ccc(C)[nH]8)[C@@H]7O)c(C)c6oc5=O)c4C)c(=O)oc3c2C)OC1(C)C` [coumermycin A1]: the IC50 is 4 nM.
